Reference: patent US8481500B2, “Compounds having neuroprotective properties” (Universidad del Pais Vasco, priority 2005, dated 2013)
“Also recorded” adds a separate entry of the source.

Legend:
[1] = test system: transient cerebral ischemia; assay: Classically conditioned eyelid responses after global ischemia; type: in vivo, Sprague-Dawley rats; conditions: rats subjected to global ischemia; 10 conditioning sessions
Experimental: (§1) Four experimental groups of Sprague-Dawley rats (each group contained 20 animals) were randomly selected: control (C), ischemic (ISCH), ischemic animals treated with mangiferin (I+MNG), and ischemic animals treated with morin (I+MOR). Transient cerebral ischemia was induced by means of occlusion of the vertebral and common carotid arteries for 10 minutes. The criteria for determining cerebral ischemia were the bilateral loss of stretch reflex, limb stiffness and mydriasis. The rectal and body temperature was maintained at 37° C. during surgery and the ischemia. […] The group of control animals was treated similarly to the group with ischemia, but none of their common carotid arteries was occluded.
(§2) Mangiferin and morin were administered intraperitoneally at a concentration of 10 mg/kg of body weight, 30 minutes after the ischemic stimulus and then at a concentration of 5 mg/kg every 12 hours for 7 days.
The study of the eyelid responses by means of classic conditioning was carried out in 10 Sprague-Dawley rats per experimental group. Each animal was anesthetized with ketamine (100 mg/kg) and xylazine (20 mg/kg). […]
A quantitative analysis of the classically conditioned eyelid responses from […] (C, dotted line) and mice with ischemia (ISCH, circles), and from mice with ischemia treated with mangiferin (I+MNG, squares) or morin (I+MOR, triangles), is shown in FIG. 4. […]

[2] = test system: neuron cultures from the brain cortex; assay: Excitotoxic neuronal death in neuron cultures (glutamate or NMDA); type: cell-based, Sprague Dawley rat; conditions: glutamate or NMDA 50 μM for 10 minutes; antioxidant 100 nM, kept 3 hours; p<0.001 vs agonist only
Experimental: The neuron cultures were obtained from the brain cortex of Sprague Dawley rat embryos of 18 days of gestation (Larm et al., 1996, Eur J Pharmacol 314: 249-54; Cheung et al., 1998, Neuropharmacol 37: 1419-29). The cells were nourished Neurobasal medium supplemented with B27 supplement (Invitrogen).
The glutamate or NMDA (N-methyl-D-aspartate) agonists were applied, both at a concentration of 50 μM, for 10 minutes. The antioxidants, morin and mangiferin, were added during the exposure of the agonist at a concentration of 100 nM and were maintained in the medium for 3 hours until cell viability was measured by means of fluorescein diacetate. […] The values are shown as the mean±S.E.M. of the quadruplicates from 3-4 different experiments.

[3] = test system: oligodendrocyte cultures; assay: Oligodendrocyte culture death caused by AMPA; type: cell-based; conditions: AMPA 10 μM for 5 minutes; polyphenol 10-100000 nM added 24 hours before; read 24 hours later
Experimental: The oligodendrocyte cultures were in turn incubated with AMPA [(RS)-α-amino-3-hydroxy-5-methyl-4-isoxazolepropionic hydrobromic acid] agonists, at a 10 μM concentration for 5 minutes. The polyphenols, mangiferin and morin, were added 24 hours before the exposure of the agonist and until the end of the experiments at concentrations comprised between 10 and 100000 nM, and cell viability was measured by means of calcein fluorimetry 24 hours later. The values shown in FIG. 1B show the percentage of normalized cell death±S.E.M. of the triplicates according to the logarithm of the concentration from three different experiments. *: p<0.05; **: p<0.01.

[4] = test system: transient cerebral ischemia; assay: NeuN+ cell count in the pyramidal layer of CA1 hippocampus after transient cerebral ischemia; type: in vivo, Sprague-Dawley rats; conditions: 7 and 70 days after ischemia; compared with placebo; i.p. 10 mg/kg, then 5 mg/kg every 12 hours for 7 days
Experimental: as §1
Mangiferin and morin were administered intraperitoneally at a concentration of 10 mg/kg of body weight, 30 minutes after the ischemic stimulus and then at a concentration of 5 mg/kg every 12 hours for 7 days. […]
The number of positive NeuN cells was quantified in the pyramidal layer of the CA1 hippocampus in control rats and operated rats, and in animals subjected to transient cerebral ischemia 7 and 70 days after the reperfusion (n=4-5 animals for every experimental group). The amounts were collected both from the left and the right hemisphere of each section analyzed by immunohistochemistry, with two sections for every experiment from at least three independent experiments. […]

[5] = test system: superoxide production in the CA1 hippocampus region; assay: Superoxide production in the CA1 hippocampus region after transient cerebral ischemia; type: in vivo, Sprague-Dawley rats; conditions: 1 day after transient global ischemia; i.p. 10 mg/kg 30 minutes after ischemia, then 5 mg/kg every 12 hours
Experimental: as §1, §2
The method described by Chan et al., 1998 (J Neurosci 18: 8292-99) was followed. […] The fluorescence was examined in cryostat sections (10 μm) and was analyzed with a fluorescence microscope (Zeiss Axiophot). The images were taken with a digital camera (Axio Vision, Zeiss) and analyzed with the Image Pro Plus program.

Compound | learning capacity (conditioned eyelid responses) [1] | excitotoxic neuronal death (cell viability by fluorescein diacetate) [2] | oligodendroglial death induced by excitotoxic stimuli (cell viability by calcein fluorimetry) [3] | number of NeuN+ cells in the pyramidal layer of the CA1 hippocampus [4] | fluorescence levels emitted by oxidized hydroethidine in neurons of the pyramidal layer of the CA1 region [5]
O=c1c2cc(O)c(O)cc2oc2cc(O)c([C@@H]3O[C@H](CO)[C@@H](O)[C@H](O)[C@H]3O)c(O)c12 [mangiferin] | conserve the learning capacity | significantly attenuates excitotoxic neuronal death | protect from neuronal and oligodendroglial death | larger; also recorded: significant increase of positive NeuN^+ cells | reduction
morin | conserve the learning capacity | significantly attenuates excitotoxic neuronal death | protect from neuronal and oligodendroglial death | larger; also recorded: significant increase of positive NeuN^+ cells | reduction
